Experimental data from US10231453B2, “5-substituted imidazole derivatives” (BAYER CROPSCIENCE AKTIENGESELLSCHAFT, priority 2015, dated 2019).
Read-outs that look alike come from different tables or passages of the source.

Experiments:
[1] = test system: Pyricularia oryzae; assay: whole plant or invertebrate; type: in vivo; conditions: 192 h, read-out: efficacy
[2] = test system: Septoria tritici; assay: In vivo preventive test on Septoria tritici (leaf spot on wheat), Examples E, Q3 and R5; conditions: Zymoseptoria tritici, 576 h, preventive spray, evaluated 24 days after inoculation
[3] = test system: Pyrenophora teres; assay: In vivo preventive test on Pyrenophora teres (net blotch on barley), Examples D, Q2 and R4; conditions: Pyrenophora teres, 336 h; for pest or weed control at 100 ppm: Example R4, rate of application 100 ppm
[4] = test system: Leptosphaeria nodorum; assay: In vivo preventive Leptosphaeria nodorum test (wheat), Example N; conditions: Parastagonospora nodorum, 192 h, 500 ppm of active ingredient, preventive spray, evaluated 8 days after inoculation, read-out: efficacy
Excerpt: After the spray coating has been dried, the plants are sprayed with a spore suspension of Leptosphaeria nodorum.

[5] = test system: Botrytis cinerea; assay: In vivo preventive test on Botrytis cinerea (grey mould) on gherkin, Examples B, Q1 and R2; conditions: Botrytis cinerea; for pest or weed control at 100 ppm: Example R2, rate of application 100 ppm
[6] = test system: Puccinia recondita; assay: In vivo preventive test on Puccinia recondita (brown rust on wheat), Examples C and R3; conditions: Puccinia recondita, 264 h, preventive spray, evaluated 11 days after inoculation
[7] = test system: Fusarium culmorum; assay: In vivo preventive Fusarium culmorum test (wheat), Example L; conditions: 120 h, 500 ppm of active ingredient, preventive spray, evaluated 5 days after inoculation, read-out: efficacy
Procedure: After the spray coating has been dried, the plants are slightly injured by using a sandblast and afterwards they are sprayed with a conidia suspension of Fusarium culmorum.
The test is evaluated 5 days after the inoculation.

[8] = test system: Uromyces appendiculatus; assay: In vivo preventive test on Uromyces appendiculatus (bean rust), Examples G and R7; conditions: 264 h, preventive spray, evaluated 11 days after inoculation
[9] = test system: Alternaria brassicae; assay: In vivo preventive test on Alternaria brassicae (leaf spot on radish), Examples A and R1; conditions: Alternaria brassicae, 144 h
[10] = Measurement of LogP values by HPLC on reversed phase columns (EEC directive 79/831 Annex V.A8); type: physicochemical; conditions: acidic range, Table 1
Procedure: Measurement of Log P values was performed as outlined above.

[11] = test system: Sphaerotheca fuliginea; assay: In vivo preventive test on Sphaerotheca fuliginea (powdery mildew on cucurbits), Examples F and R6; conditions: Podosphaera fuliginea, 360 h, preventive spray, evaluated 15 days after inoculation
[12] = test system: Blumeria graminis fsp. hordei; assay: In vivo preventive Blumeria test (barley), Example K; conditions: 168 h, 500 ppm of active ingredient, preventive spray, evaluated 7 days after inoculation, read-out: efficacy
Excerpt: After the spray coating has been dried, the plants are dusted with spores of Blumeria graminis fsp. hordei.

[13] = test system: Fusarium nivale (var. majus); assay: In vivo preventive Fusarium nivale (var. majus) test (wheat), Example O; conditions: Microdochium nivale, 120 h, 500 ppm of active ingredient, preventive spray, evaluated 5 days after inoculation, read-out: efficacy
Excerpt: After the spray coating has been dried, the plants are slightly injured by using a sandblast and afterwards they are sprayed with a conidia suspension of Fusarium nivale (var. majus).

[14] = test system: Fusarium graminearum; assay: whole plant or invertebrate; type: in vivo; conditions: in Hordeum vulgare, 120 h, read-out: efficacy
[15] = test system: Alternaria solani; assay: In vivo preventive Alternaria test (tomatoes), Example H; conditions: 72 h, 100 ppm of active ingredient, preventive spray, evaluated 3 days after inoculation, read-out: efficacy
[16] = test system: Phakopsora pachyrhizi; assay: In vivo preventive Phakopsora test (soybeans), Example I; conditions: 168 h, 100 ppm of active ingredient, preventive spray, evaluated 7 days after inoculation, read-out: efficacy
[17] = test system: Venturia inaequalis; assay: In vivo preventive Venturia test (apples), Example J; conditions: 240 h, read-out: efficacy
Procedure: After the spray coating has dried on, the plants are inoculated with an aqueous conidia suspension of the causal agent of apple scab (Venturia inaequalis) and then remain for 1 day in an incubation cabinet at approximately 20° C. and a relative atmospheric humidity of 100%.
The plants are then placed in a greenhouse at approximately 21° C. and a relative atmospheric humidity of approximately 90%.
The test is evaluated 10 days after the inoculation.

[18] = 500 ppm of active ingredient, wheat, read-out: efficacy
[19] = 500 ppm of active ingredient, preventive spray, evaluated 14 days after inoculation, read-out: efficacy
[20] = 500 ppm of active ingredient, preventive spray, evaluated 4 to 5 days after inoculation, read-out: efficacy
[21] = 500 ppm of active ingredient, bean, read-out: efficacy
[22] = 500 ppm of active ingredient, preventive spray, evaluated 6 days after inoculation, read-out: efficacy
[23] = method [a]: LC-UV, 0.1% formic acid in water and acetonitrile as eluent
[24] = 500 ppm of active ingredient, gherkin, read-out: efficacy
[25] = Example R5, wheat, read-out: Efficacy in %
[26] = Example R5, wheat, 500 ppm, read-out: Efficacy in %
[27] = Example R4, rate of application 500 ppm, read-out: Efficacy in %
[28] = Example R2, rate of application 500 ppm, read-out: Efficacy in %
[29] = Example R3, wheat, read-out: Efficacy in %
[30] = Example R3, wheat, 500 ppm, read-out: Efficacy in %
[31] = Example R7, bean, read-out: Efficacy in %
[32] = Example R7, bean, 500 ppm, read-out: Efficacy in %
[33] = Example R6, gherkin, read-out: Efficacy in %
[34] = Example R6, gherkin, 500 ppm, read-out: Efficacy in %

SMILES	pest or weed control at 500 ppm [1] [%]	pest or weed control at 500 ppm [2, 18] [%]	pest or weed control at 500 ppm [3, 19] [%]	pest or weed control at 500 ppm [4] [%]	pest or weed control at 500 ppm [5, 20] [%]	pest or weed control at 500 ppm [6, 18] [%]	pest or weed control at 500 ppm [7] [%]	pest or weed control at 500 ppm [8, 21] [%]	chromatographic logP [10, 23]	pest or weed control at 500 ppm [11, 24] [%]	pest or weed control at 500 ppm [12] [%]	pest or weed control at 500 ppm [13] [%]	pest or weed control at 500 ppm [14] [%]	pest or weed control at 100 ppm [2, 25] [%]	pest or weed control at 500 ppm [2, 26] [%]	pest or weed control at 100 ppm [15] [%]	pest or weed control at 100 ppm ([3]; read-out: Efficacy in %) [%]	pest or weed control at 500 ppm [3, 27] [%]	pest or weed control at 100 ppm [16] [%]	pest or weed control at 100 ppm [17] [%]	other results
OC(Cc1ccccc1Cl)(Cn1cncc1Cl)C1(Cl)CC1 (stereo not drawn) [Example I-02]	70 to 79	90 to 100	90 to 100	90 to 100	90 to 100	80 to 89	70 to 79	90 to 100	2.32	90 to 100	90 to 100	90 to 100	80 to 89	–	–	–	–	–	–	–	pest or weed control at 500 ppm [9, 22]: 90 to 100%; chromatographic logP ([10]; method [c]: LC-UV, 0.1% phosphoric acid and acetonitrile as eluent): 2
N#Cc1cncn1CC(O)(Cc1ccccc1Cl)C1(Cl)CC1 (stereo not drawn) [Example I-06, 1-[2-(1-chlorocyclopropyl)-3-(2-chlorophenyl)-2-hydroxypropyl]-1H-imidazole-5-carbonitrile]	90 to 100	90 to 100	90 to 100	90 to 100	90 to 100	90 to 100	90 to 100	90 to 100	2.92	90 to 100	90 to 100	90 to 100	90 to 100	98	100	90 to 100	86	93	90 to 100	80 to 89	pest or weed control at 100 ppm ([5]; read-out: Efficacy in %): 80%; pest or weed control at 500 ppm [5, 28]: 97%; pest or weed control at 100 ppm [6, 29]: 89%; pest or weed control at 500 ppm [6, 30]: 94%; pest or weed control at 100 ppm [8, 31]: 100%; pest or weed control at 500 ppm [8, 32]: 100%
N#Cc1cncn1CC(O)(Cc1cccnc1Cl)C1(Cl)CC1 (stereo not drawn) [Example I-26]	80 to 89	90 to 100	–	70 to 79	–	90 to 100	90 to 100	90 to 100	2.01	90 to 100	90 to 100	90 to 100	–	–	–	80 to 89	–	–	70 to 79	90 to 100	–
N#Cc1cncn1CC(O)(Cc1ccccc1F)C1(Cl)CC1 (stereo not drawn) [Example I-34, 1-[2-(1-chlorocyclopropyl)-3-(2-fluorophenyl)-2-hydroxypropyl]-1H-imidazole-5-carbonitrile]	–	90 to 100	90 to 100	90 to 100	90 to 100	90 to 100	90 to 100	90 to 100	2.64	90 to 100	90 to 100	90 to 100	90 to 100	100	100	90 to 100	83	98	90 to 100	90 to 100	pest or weed control at 100 ppm ([5]; read-out: Efficacy in %): 94%; pest or weed control at 500 ppm [5, 28]: 100%; pest or weed control at 100 ppm [6, 29]: 94%; pest or weed control at 500 ppm [6, 30]: 100%; pest or weed control at 100 ppm [8, 31]: 100%; pest or weed control at 500 ppm [8, 32]: 100%; pest or weed control at 500 ppm [9, 22]: 90 to 100%; pest or weed control at 100 ppm ([9]; Example R1, rate of application 100 ppm, read-out: Efficacy in %): 58%; pest or weed control at 500 ppm ([9]; Example R1, rate of application 500 ppm, read-out: Efficacy in %): 92%; pest or weed control at 100 ppm [11, 33]: 100%; pest or weed control at 500 ppm [11, 34]: 100%
C#Cc1cncn1CC(O)(Cc1ccccc1F)C1(Cl)CC1 (stereo not drawn) [Example I-36]	90 to 100	90 to 100	90 to 100	80 to 89	90 to 100	90 to 100	80 to 89	90 to 100	1.89	90 to 100	90 to 100	90 to 100	–	83	75	90 to 100	57	93	90 to 100	90 to 100	pest or weed control at 100 ppm ([5]; read-out: Efficacy in %): 100%; pest or weed control at 500 ppm [5, 28]: 100%; pest or weed control at 100 ppm [6, 29]: 89%; pest or weed control at 500 ppm [6, 30]: 94%; pest or weed control at 100 ppm [8, 31]: 100%; pest or weed control at 500 ppm [8, 32]: 100%; pest or weed control at 100 ppm [11, 33]: 100%; pest or weed control at 500 ppm [11, 34]: 100%
C#Cc1cncn1CC(O)(Cc1ccccc1Cl)C1(Cl)CC1 (stereo not drawn) [Example I-38]	90 to 100	90 to 100	80 to 89	80 to 89	90 to 100	80 to 89	80 to 89	90 to 100	2.09	90 to 100	90 to 100	90 to 100	–	–	–	90 to 100	–	–	90 to 100	90 to 100	–
OC(Cc1ccccc1)(Cn1cncc1Cl)C1(Cl)CC1 (stereo not drawn) [Example I-39]	70 to 79	90 to 100	90 to 100	70 to 79	90 to 100	90 to 100	90 to 100	90 to 100	2.04	90 to 100	90 to 100	70 to 79	90 to 100	–	–	90 to 100	–	–	90 to 100	–	–
N#Cc1cncn1CC(O)(Cc1cccc(F)c1F)C1(F)CC1 (stereo not drawn) [Example I-95]	70 to 79	90 to 100	80 to 89	80 to 89	–	90 to 100	90 to 100	90 to 100	2.37	90 to 100	90 to 100	90 to 100	90 to 100	–	–	90 to 100	–	–	90 to 100	80 to 89	–
